Structures are written as SMILES. Several values for one entry are separate records, joined by “and”; a condition that tells them apart may be missing. Equal values may be shown once. Read-outs that look alike come from different tables or passages of the source.

One experiment concerns the target T1, mTOR kinase (Homo sapiens, UniProt P42345).
T1 construct: FLAG; made in house
Kind of experiment: In vitro mTOR kinase assay, Test (a)(i) (AlphaScreen). It is filed as biochemical. On the procedure:
(a)(i) In Vitro mTOR Kinase Assay
A C-terminal truncation of mTOR encompassing amino acid residues 1362 to 2549 of mTOR (EMBL Accession No. L34075) was stably expressed as a FLAG-tagged fusion in HEK293 cells as described by Vilella-Bach et al., […], 1999, 274, 4266-4272. The HEK293 FLAG-tagged mTOR (1362-2549) stable cell line was routinely maintained at 37° C. with 5% CO2 up to a confluency of 70-90% in Dulbecco's modified Eagle's growth medium (DMEM; Invitrogen Limited, Paisley, UK Catalogue No. 41966-029) containing 10% heat-inactivated foetal calf serum (FCS; Sigma, Poole, Dorset, UK, Catalogue No. F0392), 1% L-glutamine (Gibco, Catalogue No. 25030-024) and 2 mg/ml Geneticin (G418 sulfate; Invitrogen Limited, UK Catalogue No. 10131-027). Following expression in the mammalian HEK293 cell line, expressed protein was purified using the FLAG epitope tag using standard purification techniques.
A 30 μl mixture of recombinant purified mTOR enzyme, 1 μM biotinylated peptide substrate (Biotin-Ahx-[…]NH2; Bachem UK Ltd), ATP (20 μM) and a buffer solution [comprising Tris-HCl pH7.4 buffer (50 mM), EGTA (0.1 mM), bovine serum albumin (0.5 mg/mL), DTT (1.25 mM) and manganese chloride (10 mM)] was agitated at room temperature for 90 minutes.
These assay solutions were incubated for 2 hours at room temperature.
Phosphorylated biotinylated peptide is formed in situ as a result of mTOR mediated phosphorylation. The phosphorylated biotinylated peptide that is associated with AlphaScreen Streptavidin donor beads forms a complex with the p70 S6 Kinase (T389) 1A5 Monoclonal Antibody that is associated with Alphascreen Protein A acceptor beads. […] Accordingly, the presence of mTOR kinase activity results in an assay signal. In the presence of an mTOR kinase inhibitor, signal strength is reduced.
In general terms: Bead proximity is the source of the signal in Alpha formats.

The test system of a further experiment is Serine 473 in Akt. Kind of experiment: In vitro phospho-Ser473 Akt assay, Test (c). It is filed as cell-based. The settings on record: MDA-MB-468 human breast adenocarcinoma cells, 2 hours; read-out: IC50 versus Serine 473 in Akt, Test (c). Here is the method: (c) In Vitro Phospho-SeR473 Akt Assay
This assay determines the ability of test compounds to inhibit phosphorylation of Serine 473 in Akt as assessed using Acumen Explorer technology (Acumen Bioscience Limited), a plate reader that can be used to rapidly quantitate features of images generated by laser-scanning.
A MDA-MB-468 human breast adenocarcinoma cell line (LGC Promochem, Teddington, Middlesex, UK, Catalogue No. HTB-132) was routinely maintained at 37° C. with 5% CO2 up to a confluency of 70-90% in DMEM containing 10% heat-inactivated FCS and 1% L-glutamine.
For the assay, the cells were detached from the culture flask using ‘Accutase’ (Innovative Cell Technologies Inc., San Diego, Calif., USA; Catalogue No. AT104) using standard tissue culture methods and resuspended in media to give 1.7×10^5 cells per mL. […]
All subsequent aspiration and wash steps were carried out using a Tecan 96 well plate washer (aspiration speed 10 mm/sec). […] An aliquot of PBS (50 μl) was added to each well and the plates were sealed with black plate sealers and the fluorescence signal was detected and analysed.
Fluorescence dose response data obtained with each compound were analysed and the degree of inhibition of Serine 473 in Akt was expressed as an IC50 value.

Another experiment has as its target T2, p110α Type Ia human PI3K (Homo sapiens, UniProt P42336).
T2 construct: full length DNA of each of the p110α, p110β and p110δ Type Ia human PI3K p110 isoforms; 6-His; made in house
Put plainly: In vitro PI3K enzyme assay, Test (b)(i) (AlphaScreen). The settings on record: individual values, measured twice; read-out: IC50 versus p110α Type Ia human PI3K, Test (b)(i). It is filed as biochemical. The text has this:
(b)(i) In Vitro PI3K Enzyme Assay

T1 sequence (P42345 1362-2549): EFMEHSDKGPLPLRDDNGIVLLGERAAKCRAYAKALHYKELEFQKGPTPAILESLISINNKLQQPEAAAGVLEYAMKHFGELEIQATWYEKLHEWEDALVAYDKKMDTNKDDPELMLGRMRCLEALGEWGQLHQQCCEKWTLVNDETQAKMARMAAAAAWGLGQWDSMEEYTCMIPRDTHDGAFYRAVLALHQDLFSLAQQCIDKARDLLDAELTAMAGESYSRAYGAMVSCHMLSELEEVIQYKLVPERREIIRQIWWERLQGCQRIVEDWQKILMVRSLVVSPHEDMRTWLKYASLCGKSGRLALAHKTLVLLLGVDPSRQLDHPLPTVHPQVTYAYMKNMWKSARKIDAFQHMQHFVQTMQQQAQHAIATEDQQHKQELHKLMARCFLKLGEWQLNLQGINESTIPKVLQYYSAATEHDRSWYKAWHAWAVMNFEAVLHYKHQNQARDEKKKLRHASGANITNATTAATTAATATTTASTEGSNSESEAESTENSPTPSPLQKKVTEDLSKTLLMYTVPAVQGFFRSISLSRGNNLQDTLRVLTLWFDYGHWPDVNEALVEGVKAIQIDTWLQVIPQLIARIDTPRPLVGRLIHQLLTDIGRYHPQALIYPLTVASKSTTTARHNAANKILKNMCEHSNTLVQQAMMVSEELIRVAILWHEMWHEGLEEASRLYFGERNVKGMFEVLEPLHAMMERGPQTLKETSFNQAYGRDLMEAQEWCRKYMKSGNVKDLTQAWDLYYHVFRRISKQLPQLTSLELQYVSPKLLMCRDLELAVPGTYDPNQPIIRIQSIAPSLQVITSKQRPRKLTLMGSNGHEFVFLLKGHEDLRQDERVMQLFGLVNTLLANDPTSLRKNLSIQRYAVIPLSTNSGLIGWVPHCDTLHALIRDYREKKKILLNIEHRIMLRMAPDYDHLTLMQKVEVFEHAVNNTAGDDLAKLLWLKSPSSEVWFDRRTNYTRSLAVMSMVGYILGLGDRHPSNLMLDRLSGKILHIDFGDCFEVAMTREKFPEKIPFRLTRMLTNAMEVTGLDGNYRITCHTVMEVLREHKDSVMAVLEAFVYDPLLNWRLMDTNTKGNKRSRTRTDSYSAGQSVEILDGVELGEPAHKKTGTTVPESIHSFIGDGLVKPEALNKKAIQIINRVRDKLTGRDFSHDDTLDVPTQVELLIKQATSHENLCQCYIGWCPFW
T2 sequence (P42336 whole entry, canonical isoform): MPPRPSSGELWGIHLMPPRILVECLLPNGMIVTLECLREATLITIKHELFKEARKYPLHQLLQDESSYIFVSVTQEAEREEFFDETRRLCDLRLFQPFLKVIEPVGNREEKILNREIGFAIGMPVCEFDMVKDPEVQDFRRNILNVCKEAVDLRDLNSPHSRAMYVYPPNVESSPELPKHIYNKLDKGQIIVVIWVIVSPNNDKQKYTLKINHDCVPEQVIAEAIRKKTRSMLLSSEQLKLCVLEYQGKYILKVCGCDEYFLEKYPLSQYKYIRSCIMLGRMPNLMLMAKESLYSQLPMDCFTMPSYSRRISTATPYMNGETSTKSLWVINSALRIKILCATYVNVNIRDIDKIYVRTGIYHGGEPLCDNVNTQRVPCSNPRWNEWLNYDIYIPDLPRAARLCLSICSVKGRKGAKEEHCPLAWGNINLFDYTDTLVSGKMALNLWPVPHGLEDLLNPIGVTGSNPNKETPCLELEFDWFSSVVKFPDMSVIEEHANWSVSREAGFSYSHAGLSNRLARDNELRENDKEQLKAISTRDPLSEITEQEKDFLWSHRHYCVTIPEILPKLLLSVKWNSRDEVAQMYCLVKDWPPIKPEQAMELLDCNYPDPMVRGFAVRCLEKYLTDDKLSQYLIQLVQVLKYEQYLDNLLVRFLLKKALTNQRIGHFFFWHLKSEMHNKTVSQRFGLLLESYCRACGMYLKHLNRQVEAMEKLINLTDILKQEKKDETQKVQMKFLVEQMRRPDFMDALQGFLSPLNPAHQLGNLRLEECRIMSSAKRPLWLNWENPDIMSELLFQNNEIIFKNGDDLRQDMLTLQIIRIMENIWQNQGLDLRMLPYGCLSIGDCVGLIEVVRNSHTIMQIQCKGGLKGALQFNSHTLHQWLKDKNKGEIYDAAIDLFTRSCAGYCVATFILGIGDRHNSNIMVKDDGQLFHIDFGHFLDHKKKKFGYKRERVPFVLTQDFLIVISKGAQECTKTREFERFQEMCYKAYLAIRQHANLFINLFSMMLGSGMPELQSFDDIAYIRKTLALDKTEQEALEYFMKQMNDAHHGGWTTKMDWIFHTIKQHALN
T2 sequence (P27986 whole entry partner, canonical isoform): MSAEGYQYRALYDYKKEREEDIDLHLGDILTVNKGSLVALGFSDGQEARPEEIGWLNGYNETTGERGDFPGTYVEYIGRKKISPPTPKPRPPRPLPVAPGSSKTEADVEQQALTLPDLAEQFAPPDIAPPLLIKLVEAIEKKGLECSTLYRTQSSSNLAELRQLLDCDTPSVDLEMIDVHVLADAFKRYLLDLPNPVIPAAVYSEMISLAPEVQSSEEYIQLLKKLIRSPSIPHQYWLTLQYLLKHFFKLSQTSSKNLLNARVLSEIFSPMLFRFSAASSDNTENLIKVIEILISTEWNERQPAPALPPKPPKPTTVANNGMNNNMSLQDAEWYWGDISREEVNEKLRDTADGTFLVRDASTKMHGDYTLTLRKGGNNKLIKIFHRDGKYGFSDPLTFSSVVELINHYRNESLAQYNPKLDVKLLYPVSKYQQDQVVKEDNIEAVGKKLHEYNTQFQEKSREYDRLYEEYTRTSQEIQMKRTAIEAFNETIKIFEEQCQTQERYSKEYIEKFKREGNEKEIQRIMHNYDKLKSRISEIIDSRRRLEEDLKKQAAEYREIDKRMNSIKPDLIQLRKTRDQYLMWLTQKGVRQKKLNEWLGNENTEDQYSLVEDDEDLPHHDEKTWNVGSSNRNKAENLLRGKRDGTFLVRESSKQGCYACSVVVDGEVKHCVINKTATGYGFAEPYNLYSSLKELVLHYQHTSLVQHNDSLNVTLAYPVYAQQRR

Turning to `CN(C)CC(=O)Nc1ccc(-c2nc(CS(C)(=O)=O)cc(N3CCOCC3)n2)cc1` [Example 5p, 2-dimethylamino-N-[4-[4-(methylsulfonylmethyl)-6-morpholin-4-yl-pyrimidin-2-yl]phenyl]acetamide], the IC50 (commonly the concentration that gives 50% inhibition) on mTOR kinase (individual values, measured twice, read-out: IC50 versus mTOR kinase, Test (a)(i)) was 2.46 µM and 1.64 µM; at mTOR kinase (recombinant FLAG-tagged mTOR (1362-2549), ATP 20 μM, read-out: Test (a)(i) IC50) it was 2 µM; in the experiment on Serine 473 in Akt, 7.77 µM; on p110α Type Ia human PI3K it was 93.3 µM and 51.6 µM.

The record behind these values is patent publication US20100261723A1, “TRISUBSTITUTED PYRIMIDINE DERIVATIVES FOR THE TREATMENT OF PROLIFERATIVE DISEASES” (ASTRAZENECA AB, priority 2007, published 2010).
